Results: patent US4097482A, “5-O-Cyanobenzyl-4,5,6,7-tetrahydro-thieno[3,2-c]pyridine maleate” (Centre d'Etudes Pour L'Industrie Pharmaceutique, priority 1975, dated 1978)

Tests used:
[1] = Toxicological investigation: acute toxicity LD50 in mice, intravenous route; settings: mouse, in vivo, per kg body weight
[2] = system: carrageenin-induced edema; assay: Anti-inflammatory action: localised carrageenin-induced edema method; format: in vivo; settings: rats, 100 mg/kg orally 1 h before, with, 1 h and 2.5 hrs after carrageenin
Procedure: (a) Localised carrageenin-induced edema method: A 1% carrageenin solution (0.1 ml) is injected in the metatarsal flexor muscles of the right hind limb of rats at time 0. The animals of the treated group are additionally administered orally 100 mg/kg of the test derivative, respectively one hour prior to and then simultaneously with the injection of the phlogogenic agent, and then 1 hour and 2.5 hrs thereafter. The percent anti-inflammatory activity with reference to the reference group, as a function of time, is determined by measurements effected with a Roch micrometer at times 0, 1 hour, 2 hours, 3 hours and 5 hours after carrageenin administration. The results obtained with derivatives nos.

[3] = system: ovalbumin-induced systemic edema; assay: Anti-inflammatory action: ovalbumin-induced systemic edema method; format: in vivo; settings: rats, 100 mg orally 1 hr prior to and with ovalbumin, vs control group
Procedure: (b) Ovalbumin-induced systemic edema method Rats are administered a simultaneous intraperitoneal injection of 1 ml ovalbumin and 0.5 ml of a 1°/.Salinity. aqueous Evans Blue solution. The animals of the treated group are additionally administered orally 100 mg of the test derivative, 1 hr prior to and simultaneously with ovalbumin administration. The intensity of the phenomenon thus induced is scored according to a scale from 1 to 5, according to the progress of the inflammatory syndrome. Thus are determined the mean intensity of the edema and the percent decrease of the edema reaction with respect to the control group.

SMILES | LD50 at 24 h [1] | Percent anti-inflammatory activity after 1 hour [2] | Percent anti-inflammatory activity after 2 hours [2] | Percent anti-inflammatory activity after 5 hours [2] | Percent decrease (of the edema reaction) after 2 hours [3] | Percent decrease (of the edema reaction) after 3 hours [3]
COC(=O)c1ccccc1CN1Cc2ccsc2CC1C (stereo not drawn) [Derivative no. 3, 5-o-Methoxycarbonylbenzyl-6-methyl-4,5,6,7-tetrahydrothieno[3,2-c]pyridine] | 65 mg/kg | – | – | – | – | –
Cl.Clc1ccccc1C=CCN1CCc2sccc2C1 [Derivative no. 6, 5-(3-o-chlorophenyl-2-propenyl)-4,5,6,7-tetrahydro-thieno[3,2-c]pyridine hydrochloride] | 60 mg/kg | – | – | – | – | –
OC(CN1CCc2sccc2C1)c1cccs1 (stereo not drawn) [Derivative no. 5, 5-[2-hydroxy-2-(2-thienyl)-ethyl]-4,5,6,7-tetrahydro-thieno[3,2-c]pyridinefumarate] | 75 mg/kg | 45% | 53% | 59% | 50% | 61%
COC(=O)c1ccccc1CN1CCc2sccc2C1 [Derivative no. 1, 5-o-Methoxycarbonylbenzyl-4,5,6,7-tetrahydro-thieno[3,2-c]pyridine] | 92 mg/kg | 43% | 50% | 55% | 51% | 58%
Cl.c1cc2c(s1)CCN(Cc1ccc3c(c1)OCO3)C2 [Derivative no. 8, 5-(3,4-methylenedioxy-benzyl)-4,5,6,7-tetrahydro-thieno[3,2-c]pyridine hydrochloride] | 65 mg/kg | 41% | 51% | 59% | 54% | 64%
OCc1ccccc1CN1CCc2sccc2C1 [Derivative no. 10, 5-o-hydroxy-methylbenzyl-4,5,6,7-tetrahydrothieno[3,2-c]pyridine] | – | 36% | 48% | 56% | 51% | 62%
O=C(O)c1ccccc1CN1CCc2sccc2C1 [Derivative no. 2, 5-o-Carboxybenzyl-4,5,6,7-tetrahydro-thieno[3,2-c]pyridine] | 300 mg/kg | – | – | – | – | –
N#Cc1ccccc1CN1CCc2sccc2C1.O=C(O)/C=C\C(=O)O [Derivative no. 7, 5-o-cyanobenzyl-4,5,6,7-tetrahydrothieno[3,2-c]pyridine maleate] | 45 mg/kg | – | – | – | – | –
Cl.Clc1ccc(CN2CCc3sccc3C2)s1 [Derivative no. 4, 5-[(5-Chloro-2-thienyl)-methyl]-4,5,6,7-tetrahydro-thieno[3,2-c]pyridine hydrochloride] | 165 mg/kg | 39% | 47% | 54% | 48% | 53%
